Molecules are shown by their SMILES.

The species named for assay [1] is Bos taurus. The assay is described as follows: Inhibition of purified calf kidney ALR1 at 0.6 mM preincubated for 10 mins by UV spectrophotometry. The class given is tissue-based.
A short description of assay [2]: Inhibition of purified calf eye lens ALR2 preincubated for 10 mins by UV spectrophotometry. The format is tissue-based, Bos taurus, Lens of camera-type eye.
The species entered for assay [3] is Bos taurus. The assay is described as follows: Inhibition of purified calf eye lens ALR2 at 0.6 mM preincubated for 10 mins by UV spectrophotometry. The class given is tissue-based. The following applies: Lens of camera-type eye.
Assay [4] in a line: Inhibition of purified calf kidney ALR1 preincubated for 10 mins by UV spectrophotometry. The class given is tissue-based, Bos taurus.

`COC(=O)/C=C1/S/C(=N\C(=O)c2ccc3ccccc3c2)N(c2ccccc2)C1=O`: the inhibition (usually the share of the control response that was lost under treatment) in the assay filed under Bos taurus [1] was 49.1%. Also, in assay [2], it took 5.12 µM to reach half-maximal inhibition (IC50).
The corresponding values for `COC(=O)/C=C1/S/C(=N\C(=O)c2ccccc2Cl)N(c2ccccc2)C1=O` are 19.2% and 5.21 µM.
Consider `COC(=O)/C=C1/S/C(=N\C(=O)c2ccccc2C)N(c2cccc(OC)c2)C1=O`, for which the inhibition in the assay filed under Bos taurus [3] was determined as 43.8%; in the assay listed under Bos taurus [1], 27.8%.
Regarding `COC(=O)/C=C1/S/C(=N\C(=O)c2ccccc2)N(c2cccc3ccccc23)C1=O`, the inhibition in the assay filed under Bos taurus [1] amounted to 44.3%. Moreover, in assay [2], the IC50 (usually the concentration at which inhibition is half-maximal) was found to be 3.19 µM.
In the assay listed under Bos taurus [1], `COC(=O)/C=C1/S/C(=N\C(=O)c2cccc(C)c2)N(c2ccccc2)C1=O` showed an inhibition of 31.5%. The IC50 in assay [2] amounted to 9.75 µM.
`COC(=O)/C=C1/S/C(=N\C(=O)c2ccccc2)N(c2ccccc2OC)C1=O` yielded an inhibition in the assay filed under Bos taurus [1] of 41.2%. Also, the concentration for half-maximal inhibition (IC50) in assay [2] turned out to be 2.82 µM.
As to `COC(=O)/C=C1/S/C(=N\C(=O)c2ccccc2Br)N(c2ccc(Cl)cc2Cl)C1=O`, the inhibition in the assay filed under Bos taurus [1] is 72.7%. The 50% inhibitory concentration (IC50) in assay [2] was 2.54 µM.
Take `COC(=O)/C=C1/S/C(=N\C(=O)c2ccccc2Br)N(c2cccc(Cl)c2Cl)C1=O`: the inhibition in the assay listed under Bos taurus [1] turned out to be 51.4%. Inhibition in assay [2] was half-maximal at 9.42 µM (IC50).
In the assay filed under Bos taurus [1], `COC(=O)/C=C1/S/C(=N\C(=O)c2ccc(Cl)cc2)N(c2cccc(Cl)c2Cl)C1=O` returned an inhibition of 15.3%. This compound returned a concentration for half-maximal inhibition (IC50) in assay [2] of 12.4 µM.
In the case of `CCCC(CCC)C(=O)O` [VALPROIC ACID], in assay [4], the IC50 turned out to be 57.4 µM.
The compound `COC(=O)/C=C1/S/C(=N\C(=O)c2ccc([N+](=O)[O-])cc2)N(c2ccccc2F)C1=O` yielded an inhibition in the assay filed under Bos taurus [1] of 49.5%. The IC50 in assay [2] was found to be 36.1 µM.
In turn, `O=C1NC(=O)[C@@]2(CCOc3ccc(F)cc32)N1` [SORBINIL] gave an IC50 in assay [2] of 3.14 µM. This counts as single-digit micromolar.
`COC(=O)/C=C1/S/C(=N\C(=O)c2cccc(C)c2)N(c2ccccc2OC)C1=O` gave an inhibition in the assay listed under Bos taurus [1] of 32.4%. This compound returned a 50% inhibitory concentration (IC50) in assay [2] of 6.26 µM.
For `COC(=O)/C=C1/S/C(=N\C(=O)c2ccc([N+](=O)[O-])cc2)N(c2ccc(F)c(Cl)c2)C1=O`, the inhibition in the assay listed under Bos taurus [3] came out at 47.7%; in the assay filed under Bos taurus [1], 38.4%.
For the compound `COC(=O)/C=C1/S/C(=N\C(=O)c2cccc(C)c2)N(c2cccc(Cl)c2)C1=O`, in the assay filed under Bos taurus [1], the inhibition stood at 42.6%. Besides, in assay [2], the IC50 was found to be 4.52 µM.
Take `COC(=O)/C=C1/S/C(=N\C(=O)c2ccc(C)cc2)N(c2cccc(Cl)c2)C1=O`: the inhibition in the assay listed under Bos taurus [3] is 44.3%; in the assay filed under Bos taurus [1], 43.5%.

The record behind these values is ChEMBL document CHEMBL3217575, “Design, synthesis and molecular modelling of novel methyl[4-oxo-2-(aroylimino)-3-(substituted phenyl)thiazolidin-5-ylidene]acetates as potent and selective aldose reductase inhibitors” (Medchemcomm, 2012).
